A short description of experiment [1]: Cytotoxicity against human MEL28 cells. The format is functional, cell-based. Particulars: SK-MEL-28.
The test system of experiment [2] is HT-29. As to the kind of experiment: Cytotoxicity against human HT-29 cells. The format is functional, cell-based.
Experiment [3] concerns P388. As to the kind of experiment: Cytotoxicity against mouse P388 cells. The experiment is classed as functional, cell-based.
For experiment [4], the system named is A549. The experiment in a line: Cytotoxicity against human A549 cells. The experiment is classed as functional, cell-based.
Experiment [5] relates to MGC-803. As to the kind of experiment: Cytotoxicity against human MGC803 cells after 72 hrs by MTT assay. The format is functional, cell-based. Particulars: MGC-803, 72 h. In general terms: Tetrazolium dyes change colour on reduction, which living cells bring about.
In experiment [6] the test system is MGC-803. The experiment in a line: Induction of apoptosis in human MGC803 cells assessed as early apoptotic cells at 4 uM after 24 hrs by AnnexinV/FITC-propidium iodide staining-based flow cytometry (reference value: 8.9%). The experiment is classed as functional. (A flow cytometer gives signals particle by particle.)
Experiment [7] has as its system MGC-803. As to the kind of experiment: Cell cycle arrest in human MGC803 cells assessed as accumulation at G0/G1 phase at 8 uM after 24 hrs by propidium iodide staining-based flow cytometry (reference value: 43.45%). The format is functional.
Experiment [8] relates to MGC-803. As to the kind of experiment: Cell cycle arrest in human MGC803 cells assessed as accumulation at S phase at 4 uM after 24 hrs by propidium iodide staining-based flow cytometry (reference value: 26.67%). The experiment is classed as functional.
The subject of experiment [9] is MGC-803. The experiment in a line: Cell cycle arrest in human MGC803 cells assessed as accumulation at S phase at 2 uM after 24 hrs by propidium iodide staining-based flow cytometry (reference value: 26.67%). The experiment is classed as functional.
Experiment [10] has as its system MGC-803. As to the kind of experiment: Cell cycle arrest in human MGC803 cells assessed as accumulation at G0/G1 phase at 2 uM after 24 hrs by propidium iodide staining-based flow cytometry (reference value: 43.45%). The experiment is classed as functional.
The test system of experiment [11] is MGC-803. As to the kind of experiment: Induction of apoptosis in human MGC803 cells assessed as late apoptotic cells at 8 uM after 24 hrs by AnnexinV/FITC-propidium iodide staining-based flow cytometry (reference value: 1.2%). The experiment is classed as functional.
Experiment [12] has as its system MGC-803. As to the kind of experiment: Cell cycle arrest in human MGC803 cells assessed as accumulation at S phase at 8 uM after 24 hrs by propidium iodide staining-based flow cytometry (reference value: 26.67%). The experiment is classed as functional.
Experiment [13] relates to MGC-803. The experiment in a line: Induction of apoptosis in human MGC803 cells assessed as viable cells at 2 uM after 24 hrs by AnnexinV/FITC-propidium iodide staining-based flow cytometry (reference value: 89.6%). Particulars: MGC-803, 24 h, read-out: Activity. The format is functional.
Experiment [14] concerns MGC-803. The experiment in a line: Induction of apoptosis in human MGC803 cells assessed as late apoptotic cells at 2 uM after 24 hrs by AnnexinV/FITC-propidium iodide staining-based flow cytometry (reference value: 1.2%). The experiment is classed as functional.
Experiment [15] deals with MGC-803. The experiment in a line: Cell cycle arrest in human MGC803 cells assessed as accumulation at G0/G1 phase at 4 uM after 24 hrs by propidium iodide staining-based flow cytometry (reference value: 43.45%). The format is functional.
The subject of experiment [16] is MGC-803. The experiment in a line: Induction of apoptosis in human MGC803 cells assessed as early apoptotic cells at 2 uM after 24 hrs by AnnexinV/FITC-propidium iodide staining-based flow cytometry (reference value: 8.9%). The experiment is classed as functional.
The test system of experiment [17] is MGC-803. As to the kind of experiment: Induction of apoptosis in human MGC803 cells assessed as early apoptotic cells at 8 uM after 24 hrs by AnnexinV/FITC-propidium iodide staining-based flow cytometry (reference value: 8.9%). The experiment is classed as functional.
Experiment [18] deals with MGC-803. As to the kind of experiment: Cell cycle arrest in human MGC803 cells assessed as accumulation at G2/M phase at 8 uM after 24 hrs by propidium iodide staining-based flow cytometry (reference value: 20.41%). The experiment is classed as functional.
The test system of experiment [19] is MGC-803. As to the kind of experiment: Cell cycle arrest in human MGC803 cells assessed as accumulation at G2/M phase at 2 uM after 24 hrs by propidium iodide staining-based flow cytometry (reference value: 20.41%). The format is functional.
Experiment [20] relates to PC-3. The experiment in a line: Cytotoxicity against human PC3 cells after 72 hrs by MTT assay. The format is functional, cell-based. Particulars: PC-3, 72 h.
Experiment [21] deals with MGC-803. The experiment in a line: Cell cycle arrest in human MGC803 cells assessed as accumulation at G2/M phase after 24 hrs by propidium iodide staining-based flow cytometry. The format is functional.
For experiment [22], the system named is MGC-803. The experiment in a line: Induction of apoptosis in human MGC803 cells assessed as necrotic cells at 8 uM after 24 hrs by AnnexinV/FITC-propidium iodide staining-based flow cytometry (reference value: 0.2%). The format is functional.
Experiment [23] deals with MGC-803. As to the kind of experiment: Induction of apoptosis in human MGC803 cells assessed as late apoptotic cells at 4 uM after 24 hrs by AnnexinV/FITC-propidium iodide staining-based flow cytometry (reference value: 1.2%). The experiment is classed as functional.
The test system of experiment [24] is MCF7. The experiment in a line: cells. Particulars: Homo sapiens, MCF7, 72 h.
Description: Cytotoxicity against human MCF7 cells after 72 hrs by MTT assay
The subject of experiment [25] is SMMC-7721. The experiment in a line: Cytotoxicity against human SMMC7721 cells after 72 hrs by MTT assay. The format is functional, cell-based. Particulars: SMMC-7721, 72 h.
Experiment [26] concerns MGC-803. As to the kind of experiment: Induction of apoptosis in human MGC803 cells assessed as necrotic cells at 2 uM after 24 hrs by AnnexinV/FITC-propidium iodide staining-based flow cytometry (reference value: 0.2%). The experiment is classed as functional.
The test system of experiment [27] is MGC-803. As to the kind of experiment: Induction of apoptosis in human MGC803 cells assessed as necrotic cells at 4 uM after 24 hrs by AnnexinV/FITC-propidium iodide staining-based flow cytometry (reference value: 0.2%). The format is functional.
Experiment [28] has as its system MGC-803. As to the kind of experiment: Induction of apoptosis in human MGC803 cells assessed as viable cells at 4 uM after 24 hrs by AnnexinV/FITC-propidium iodide staining-based flow cytometry (reference value: 89.6%). The experiment is classed as functional. Particulars: MGC-803, 24 h, read-out: Activity.
Experiment [29] relates to MGC-803. The experiment in a line: Induction of apoptosis in human MGC803 cells assessed as viable cells at 8 uM after 24 hrs by AnnexinV/FITC-propidium iodide staining-based flow cytometry (reference value: 89.6%). The experiment is classed as functional. Particulars: MGC-803, 24 h, read-out: Activity.
Experiment [30] is described as follows: Cytotoxicity against human EC109 cells after 72 hrs by MTT assay. The experiment is classed as functional, cell-based. Particulars: ECa-109, 72 h.
Experiment [31] deals with MGC-803. The experiment in a line: Cell cycle arrest in human MGC803 cells assessed as accumulation at G2/M phase at 4 uM after 24 hrs by propidium iodide staining-based flow cytometry (reference value: 20.41%). The format is functional.

Converted amounts (≈) assume the structure as drawn.

The term IC50 denotes the concentration at which inhibition is half-maximal. High values mean weaker potency, low ones greater potency.

Consider `C=C1C[C@@H]2C/C=C/C(=O)C/C(C)=C\C=C\C(=O)O[C@H]([C@H](O)NC(=O)/C=C\C=C\C)C/C(C)=C/[C@H](C1)O2` [ZAMPANOLIDE], for which the IC50 in experiment [1], in experiment [2], in experiment [3] and in experiment [4] was 1 ng/mL (≈ 2.02 nM) throughout.
On to `CC(=O)O[C@H]1CC[C@@]2(C)C(=CC[C@@H]3[C@@H]2CC[C@]2(C)C(=C(/C#N)C(N)=O)/C(=C/c4ccc(Cl)cc4)C[C@@H]32)C1`, for which the IC50 in experiment [5] turned out to be 1.54 µM; in experiment [20], 11.5 µM; in experiment [24] it was 3.85 µM; in [25] it was 3.9 µM; in experiment [30], 5.56 µM. Further, the Activity in [6] is reported as 35.9%; in experiment [7], 21.6%; in [8] it was 19.94%; in experiment [9], 15.68%; in experiment [10], 48.61%; in experiment [11], 17.1%. Also, the Activity in [12] came to 19.09%; in experiment [14], 4.4%; in experiment [15], 28.84%; in experiment [16], 18.7%; in experiment [17], 80.9%; in experiment [18] it was 56.91%. The Activity was 33.68% in [19]; “Dose-dependent effect” in [21]; 0.1% in [22]; 9.4% in experiment [23]; 0.5% in experiment [26]; 2% in experiment [27]. The Activity in [31] is reported as 49.43%. The viability at 2 µM in experiment [13] worked out at 76.3%. Also, in [28], the viability at 4 µM is 52.7%. For the same molecule, the viability at 8 µM in experiment [29] came out at 1.9%.

Source of the values: ChEMBL document CHEMBL2413073, “Efficient construction of novel D-ring modified steroidal dienamides and their cytotoxic activities” (Eur J Med Chem, 2013).
